The values that follow come from US5886051A, “Methods and compositions for the treatment of neurodegeneration” (University Of Florida Research Foundation, Inc., priority 1995, dated 1999).

The subject of the experiment is N-methyl-D-aspartate receptor complex. The experiment in a line: [3H]MK-801 binding to rat cortical membranes with excess L-glutamate and glycine, modulated by polyamines. The conditions noted are these: for [3H]MK-801 binding relative to "100% Control": 100 μM L-Glu, 100 μM Gly, 2 nM [3H]MK-801, mean ± SD; for effect on [3H]MK-801 binding: at 100 μm; for concentration above which the polyamine is antagonistic: piperidine polyamines, tested 0.05-1,000 μM. From the text:
Data are plotted as means ±standard deviation for four separate experiments on each tetraamine: (--.tangle-solidup.--) SPM (n=4), (.largecircle.) DMNSPM (n=4), (.circle-solid.) DMHSPM (n=4), (.rect-hollow.) DENSPM (n=4), (.box-solid.) DEHSPM (N=4), (.increment.) DBHSPM (n=4) and (--.tangle-solidup.--) BAHSPM (n=4).
Cerebral cortices from young male Sprague-Dawley rats (200-300 g) were homogenized with 10 volumes of ice-cold 0.32M sucrose using a motor-driven glass/Teflon homogenizer. The homogenate was centrifuged at 1,000 g for 10 minutes. The 1,000 g pellet was re-suspended in buffer A (5 mM Tris-HCl, pH 7.7 at 4° C.) and centrifuged at 8,000 g for 20 minutes. The supernatant and upper buffy coat of the pellet were combined and centrifuged at 50,000 g for 20 minutes. The pellet was then re-suspended in 10 volumes of buffer A and homogenized using high-intensity ultrasound and centrifuged at 50,000 g, discarding the supernatant. The pellet was washed in this manner an additional three times and stored as a frozen suspension at […] for at least 18 hours, but no longer than two weeks, before use.
For binding experiments, frozen membranes were thawed, pelleted at 50,000 g for 20 minutes and washed as described above, except that 20 volumes of buffer A were used for re-suspension, for a total of five times. The final pellet was re-suspended in buffer B (5 mM Tris-HCl, pH 7.5 at 23° C.).
Binding assays were performed in triplicate at 23° C. for 1 hour and were terminated by filtration through Whatman GF/B glass fiber filters followed by three 5.0 ml rinses of ice-cold buffer B using a Brandel M-48 cell harvester.

For the molecule `CC(C)(C)NCCCCNCCCCNCCCCNC(C)(C)C` [DBHSPM], the “[3H]MK-801 binding relative to "100% Control"” value was 106.5±8.0% (1 μM tetraamine) and 33.0±4.0% (10 μM tetraamine).
On to `CCNCCCCNCCCCNCCCCNCC` [DEHSPM, diethylhomospermine], for which the “[3H]MK-801 binding relative to "100% Control"” value reads like this: (1 μM tetraamine) 114.3±4.5%; (10 μM tetraamine) 53.9±6.0%.
On the same counts, the results for `CCNCCCNCCCNCCCNCC` [DENSPM] are 113.7±5.9% and 63.7±5.9%.
With `CNCCCCNCCCCNCCCCNC` [DMHSPM], the “[3H]MK-801 binding relative to "100% Control"” value (1 μM tetraamine) came to 117.8±8.1% and the “[3H]MK-801 binding relative to "100% Control"” value (10 μM tetraamine) came out at 76.3±7.0%.
Take `CNCCCNCCCNCCCNC` [DMNSPM]: the “[3H]MK-801 binding relative to "100% Control"” value is 120.6±3.1% (1 μM tetraamine) and 87.9±6.0% (10 μM tetraamine).
Consider `C(CNC1CCNCC1)CNC1CCNCC1` [PIP[3,3,3]], for which the “effect on [3H]MK-801 binding” value is on record as “still agonistic”.
For `C(CCNC1CCNCC1)CNC1CCNCC1` [PIP[3,4,3]], the “effect on [3H]MK-801 binding” value was “agonistic”.
In the case of `C(CCNCC1CCNCC1)CNCC1CCNCC1` [PIP[4,4,4], N,N'-1,4-Butanediylbis(4-piperidinemethanamine)], the “concentration above which the polyamine is antagonistic” value is “above 12 μm”.
Same read-out and setting: with `C(CCNCCC1CCNCC1)CNCCC1CCNCC1` [PIP[5,4,5], N,N'-1,4-Butanediylbis(4-piperidineethanamine)] the entry was “above 13 μm”.
In the case of `Cl.Cl.Cl.Cl.NCCCNCCCCNCCCN` [SPM, Spermine tetrahydrochloride, reference compound], the “[3H]MK-801 binding relative to "100% Control"” value is, setting by setting: (1 μM tetraamine) 123.2±5.0%; (500 μM tetraamine) 82.0±8.1%; (1,000 μM tetraamine, 1000 µM) 78.9±8.3%. The “effect on [3H]MK-801 binding relative to "100% Control"” value (at 500 and 1,000 μM) is “moderate antagonism”.
